# From publication PMC10349806 (Nature Communications, 2023)
# “And” between values parts separate entries of the source, which are not always exact repeats. Identical values can stand only once.
# What was measured:
# PfCRT variant E121A = experiment: CQ uptake assay, oocytes expressing E121A; type: cell-based, Plasmodium falciparum
# Protocol: (§1) Site-directed mutagenesis of PfCRT^Dd2 was performed as described using the megaprimer method with overlap extension[21],[54]. The primer pairs used are listed in Supplementary Table 6. Please note that a codon-optimized and oocyte-adapted version of PfCRT^Dd2 was used[22] (Supplementary Fig. 16). The resulting DNA fragment was cloned into the SP64T expression vector and verified by sequencing.
# (§2) Oocytes were obtained as described previously. Briefly, adult (>2 years old) female X. laevis frogs (NASCO) were anesthetized in a cooled solution of ethyl 3-amino benzoate methanesulfonate (0.1%, w/v), followed by a surgical removal of parts of the ovary. The ovary lobes were carefully dissected and small pieces of oocytes were incubated in Ca^2+-free ND96 buffer (96 mM NaCl, 2 mM KCl, 1 mM MgCl2 buffered with 5 mM HEPES/NaOH, pH 7.5) supplemented with collagenase D (0.1%, w/v; Roche), BSA (0.5%, w/v), and 9 mm Na2HPO4 at 18 °C for 14-16 h while gentle shaking. After incubation, the oocytes were carefully washed several times with ND96 buffer (96 mM NaCl, 2 mM KCl, 1.8 mM CaCl2, 1 mM MgCl2 buffered with 5 mM HEPES/NaOH, pH 7.5) supplemented with 100 mg l^−1 gentamycin). Defolliculated and healthy-looking stage V-VI oocytes were manually selected for RNA microinjection. The RNA was generated as following: The codon-optimized sequences of PfCRT variants were cloned into the pSP64T expression vector. After vector linearization using the restriction endonucleases BamHI or SalI (New England Biolabs), transcription was performed using the in vitro SP6 mMessage mMachine Kit (Ambion)[34]. The obtained RNA was kept at −80 °C and diluted with nuclease-free water to a concentration of 0.6 μg μl^−1. Precision-bore glass capillary tubes (3.5-inch glass capillaries; Drummond Scientific Co.) were pulled on a vertical puller (P-87 Flaming/Brown micropipette puller, Sutter Instrument Co.), graduated, and placed on a microinjector (Nanoject II Auto-Nanoliter Injector, Drummond Scientific Co.). 50 nl of nuclease-free water alone (control oocytes) or 50 nl of 0.6 μg μl^−1 RNA were injected under stereomicroscopic control. Injected oocytes were incubated for 46–72 h at 18 °C with twice-daily buffer changes before usage in experiments.
# Drug uptake assays were performed as described previously[21],[22],[24],[34]. […] The direction of radio-labeled drug transport is here from the mostly acidic extracellular solution (pH 4.5 or 6.0, as indicated) into the oocyte cytosol (pH ∼ 7.2), which corresponds to the efflux of drug from the acidic digestive vacuole (pH 5.2) into the parasite cytoplasm (pH 7.2). The topology of PfCRT in the oolemma is such that both the N- and C-terminus face the extracellular milieu[3],[22]. In the parasite, the N- and C-terminus face the lumen of the digestive vacuole. CQ uptake kinetics were performed by incubating oocytes in ND96 buffer adjusted to a pH of 4.5, 5.0, 5.5, or 6.0 and supplemented with 50 nM [^3H]CQ and one of 7 different CQ concentrations (10 µM, 50 µM, 100 µM, 200 µM, 300 µM, 400 µM, 500 µM CQ). The reaction was stopped at the 60 min time point, which is in the linear uptake range[22],[34] (Supplementary Fig. 17). […] The radioactivity of each sample was measured using a liquid scintillation analyzer Tri-Carb 4910 TR (PerkinElmer). Oocytes that were injected with water instead of RNA were analyzed in parallel, representing the uptake of a drug by diffusion and/or endogenous permeation pathways. […]
# PfCRT variant E208A = target: T1, PfCRT variant E208A (Plasmodium falciparum, UniProt Q9N623, A220S/E208A/I356T/K76T/M74I/N326S/N75E/Q271E/R371I); experiment: CQ uptake assay, oocytes expressing E208A; type: cell-based
# T1 sequence (Q9N623 1-424 M74I/N75E/K76T/E208A/A220S/Q271E/N326S/I356T/R371I): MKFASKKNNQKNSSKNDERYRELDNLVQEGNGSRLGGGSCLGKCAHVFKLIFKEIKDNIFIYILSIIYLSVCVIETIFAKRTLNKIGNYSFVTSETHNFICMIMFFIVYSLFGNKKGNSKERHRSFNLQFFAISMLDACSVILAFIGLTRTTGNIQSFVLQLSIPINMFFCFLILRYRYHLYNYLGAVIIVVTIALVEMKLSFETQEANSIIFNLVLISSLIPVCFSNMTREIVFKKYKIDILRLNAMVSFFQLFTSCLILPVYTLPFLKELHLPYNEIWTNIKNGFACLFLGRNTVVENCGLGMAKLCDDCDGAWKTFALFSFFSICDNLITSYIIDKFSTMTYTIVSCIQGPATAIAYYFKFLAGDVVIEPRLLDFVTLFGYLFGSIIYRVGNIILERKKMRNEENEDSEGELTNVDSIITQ
# Protocol: as §1, §2
# Drug uptake assays were performed as described previously[21],[22],[24],[34]. […] The direction of radio-labeled drug transport is here from the mostly acidic extracellular solution (pH 4.5 or 6.0, as indicated) into the oocyte cytosol (pH ∼ 7.2), which corresponds to the efflux of drug from the acidic digestive vacuole (pH 5.2) into the parasite cytoplasm (pH 7.2). The topology of PfCRT in the oolemma is such that both the N- and C-terminus face the extracellular milieu[3],[22]. In the parasite, the N- and C-terminus face the lumen of the digestive vacuole. […] For determination of the amount of drug uptake for each oocyte, the reaction medium was removed and the oocytes were washed three times with 2 ml of ice-cold ND96 buffer. Each oocyte was individually transferred to a scintillation vial containing 5% sodium dodecyl sulfate (200 μl) for lysis. […] Oocytes that were injected with water instead of RNA were analyzed in parallel, representing the uptake of a drug by diffusion and/or endogenous permeation pathways. […] The specific PfCRT-mediated uptake was determined by subtracting the corresponding background value measured in water-injected oocytes from that of PfCRT-expressing oocytes. […]
# [1] = E121A, 50 µM CQ, 1 h, mean ± SEM
# [2] = pH 4.5, single replicates, Fig 1d left
# [3] = pH 6.0, single replicates, Fig 1d left
smiles,measurement,setting,value
"CCN(CC)CCCC(C)Nc1ccnc2cc(Cl)ccc12 (stereo not shown) [CQ, chloroquine]",Activity at pH 4.5,PfCRT variant E121A; [1],1.35 ± 0.09 pmol h-1 oocyte-1
same,Activity at pH 6.0,PfCRT variant E121A; [1],3.95 ± 0.82 pmol h-1 oocyte-1
same,R-value,"PfCRT variant E121A; E121A, CQ transport at pH 4.5 / pH 6.0",0.43 ± 0.06
same,E121A transport activity pH 4.5,PfCRT variant E121A; [2],1.13 pmol oocyte-1 h-1 and 1.51 pmol oocyte-1 h-1 and 1.41 pmol oocyte-1 h-1
same,E121A transport activity pH 6.0,PfCRT variant E121A; [3],5.74 pmol oocyte-1 h-1 and 2.27 pmol oocyte-1 h-1 and 3.83 pmol oocyte-1 h-1
same,Activity at pH 6.0,"PfCRT variant E208A; E208A, 50 µM CQ, 1 h, mean ± SEM",5.43 ± 0.38 pmol h-1 oocyte-1
same,R-value,"PfCRT variant E208A; E208A, CQ transport at pH 4.5 / pH 6.0",0.48 and 0.48 ± 0.05
same,E208A transport activity pH 4.5,PfCRT variant E208A; [2],3.17 pmol oocyte-1 h-1 and 3.09 pmol oocyte-1 h-1 and 1.68 pmol oocyte-1 h-1
same,E208A R-value,"PfCRT variant E208A; pH 4.5 vs pH 6.0, Fig 1d left",0.52 and 0.55 and 0.37
same,E208A transport activity pH 6.0,PfCRT variant E208A; [3],6.15 pmol oocyte-1 h-1 and 5.57 pmol oocyte-1 h-1 and 4.57 pmol oocyte-1 h-1
